Assay results: article PMC6745501, “Plant photoreceptors and their signaling components compete for COP1 binding via VP peptide motifs” (The EMBO Journal, 2019)
“And” between values parts separate entries of the source, which are not always exact repeats. Identical values can stand only once.

What was measured:
[1] = molecular target: T1, COP1^Lys422Ala WD40 domain (Arabidopsis thaliana, UniProt P43254, K422A); test: biochemical; assay type: binding; settings: for N (stoichiometry of binding), VP peptide vs. COP1^Lys422Ala: peptide into COP1^Lys422Ala, 25°C, ± standard deviation
T1 construct: His10-Twin-Strep with TEV site (N, cleaved yes); made in house; host or cells: Spodoptera frugiperda Sf9 insect cells (baculovirus, modified pFastBac)
T1 sequence (P43254 349-675 K422A): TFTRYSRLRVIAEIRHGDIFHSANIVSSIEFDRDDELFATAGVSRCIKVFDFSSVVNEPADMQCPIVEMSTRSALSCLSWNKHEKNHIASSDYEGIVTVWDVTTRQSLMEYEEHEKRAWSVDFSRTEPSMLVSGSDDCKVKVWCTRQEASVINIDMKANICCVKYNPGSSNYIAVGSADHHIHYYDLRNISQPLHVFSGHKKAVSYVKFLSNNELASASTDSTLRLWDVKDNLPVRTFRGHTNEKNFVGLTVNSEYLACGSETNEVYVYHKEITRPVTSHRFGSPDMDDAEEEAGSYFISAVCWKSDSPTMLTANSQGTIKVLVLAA
Description: (§1) All experiments were performed in a buffer containing 150 mM NaCl, 20 mM HEPES 7.4, and 2 mM BME. […] The peptides were centrifuged at 14,000 × g for 10 min, and only the supernatant was used. The dissolved peptide concentrations were calculated based upon their absorbance at 280 nm and their corresponding molar extinction coefficient. […] Experiments were performed at 25°C and a stirring speed of 1,000 rpm on an ITC200 instrument (GE Healthcare). All data were processed using Origin 7.0 and fit to a one‐site binding model after background buffer subtraction.

[2] = molecular target: T2, Arabidopsis COP1^349–675 WD40 domain (Arabidopsis thaliana, UniProt P43254); test: Isothermal titration calorimetry (ITC) versus the COP1 WD40 domain; assay type: binding; settings: for N (stoichiometry of binding), VP peptide vs. COP1 WD40 domain (WT): peptide into COP1, 25°C, one-site binding model, ± standard deviation
T2 construct: His10-Twin-Strep with TEV site (N, cleaved yes); made in house; host or cells: Spodoptera frugiperda Sf9 insect cells (baculovirus, modified pFastBac)
T2 sequence (P43254 349-675): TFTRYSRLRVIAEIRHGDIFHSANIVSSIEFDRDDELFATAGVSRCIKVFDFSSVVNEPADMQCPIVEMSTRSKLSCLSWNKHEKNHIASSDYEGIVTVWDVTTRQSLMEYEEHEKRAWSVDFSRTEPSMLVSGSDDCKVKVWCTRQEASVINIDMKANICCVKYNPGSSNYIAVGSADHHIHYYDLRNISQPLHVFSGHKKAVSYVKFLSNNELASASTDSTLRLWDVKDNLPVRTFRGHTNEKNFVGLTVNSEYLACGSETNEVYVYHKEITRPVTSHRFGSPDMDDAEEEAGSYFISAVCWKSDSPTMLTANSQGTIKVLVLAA
Description: All experiments were performed in a buffer containing 150 mM NaCl, 20 mM HEPES 7.4, and 2 mM BME. Peptides were synthesized and delivered as lyophilized powder (Peptide Specialty Labs GmbH) and dissolved directly in buffer. The peptides were centrifuged at 14,000 × g for 10 min, and only the supernatant was used. […] Experiments were performed at 25°C and a stirring speed of 1,000 rpm on an ITC200 instrument (GE Healthcare). All data were processed using Origin 7.0 and fit to a one‐site binding model after background buffer subtraction.

[3] = molecular target: T3, COP1^Tyr441Ala WD40 domain (Arabidopsis thaliana, UniProt P43254, Y441A); assay type: binding; settings: ITC, peptide into COP1^Tyr441Ala, 25°C; ± standard deviation
T3 construct: His10-Twin-Strep with TEV site (N, cleaved yes); made in house; host or cells: Spodoptera frugiperda Sf9 insect cells (baculovirus, modified pFastBac)
T3 sequence (P43254 349-675 Y441A): as the sequence (P43254 349-675 K422A) above, with A74K, Y93A counted along it
Description: as §1

[4] = molecular target: COP1 WD40 domain; test: Grating-coupled interferometry (GCI) binding kinetics versus the COP1 WD40 domain; parameters: species or system Arabidopsis; settings: ligand COP1 (2000 pg/mm2), analyte in the absence of UV-B (ground state), highest concentration 2 μM, 1:1 binding model, read-out: Kd (dissociation constant), - UV-B
Description: For CRY2 activation, proteins were diluted to their final assay concentrations (as indicated in the figure legends) in Eppendorf tubes and exposed to 10 min of fluorescent light on ice.
The Creoptix WAVE system (Creoptix AG), a label‐free surface biosensor, was used to perform GCI experiments. All experiments were performed on 2PCH or 4PCH WAVEchips (quasi‐planar polycarboxylate surface; Creoptix AG). After a borate buffer conditioning (100 mM sodium borate pH 9.0, 1 M NaCl; Xantec), COP1 (ligand) was immobilized on the chip surface using standard amine‐coupling: 7 min activation [1:1 mix of 400 mM N‐(3‐dimethylaminopropyl)‐N′‐ethylcarbodiimide hydrochloride and 100 mM N‐hydroxysuccinimide (both Xantec)], injection of COP1 (10 μg/ml) in 10 mM sodium acetate pH 5.0 (Sigma) until the desired density was reached, and final quenching with 1 M ethanolamine pH 8.0 for 7 min (Xantec). […] Blank injections were used for double referencing and a dimethyl sulfoxide (DMSO) calibration curve for bulk correction. Analysis and correction of the obtained data were performed using the Creoptix WAVEcontrol software (applied corrections: X and Y offset; DMSO calibration; double referencing), and a one‐to‐one binding model or a heterogenous ligand model with bulk correction was used to fit all experiments.

[5] = tested on: COP1 WD40 domain; test: Analytical size-exclusion chromatography binding assay; parameters: species or system Arabidopsis; settings: Superdex 200 Increase 10/300 GL, ~4 μM per protein
Description: 500 μl of the respective protein solution or a mixture (~ 4 μM per protein) was loaded sequentially onto the column, and elution at 0.75 ml/min was monitored by UV absorbance at 280 nm.

Ac-NDQQVPSAVY-NH2 [CRY2 peptide]
Times reduction of binding by the COP1^Lys422Ala mutation compared with wild type COP1 ([1]; ITC, ratio of Kd values): ~ 30 | Kd [2]: 21 ± 2 µM | N (stoichiometry of binding), VP peptide vs. COP1 WD40 domain (WT) ([2]; ITC): 1.04 ± 0.20

Ac-EIRRVPEFGGY-NH2 [HY5 peptide]
Kd [1]: 23 ± 10 µM | N (stoichiometry of binding), VP peptide vs. COP1^Lys422Ala ([1]; ITC): 0.83 ± 0.2 | N (stoichiometry of binding), VP peptide vs. COP1^Tyr441Ala [3]: 0.92 ± 0.3 | Kd [2]: 23 ± 7 µM | Times stronger binding to COP1 than UVR8^406–413 ([2]; ITC, ratio of Kd values): ~ 8

Ac-RYAVVPDE-NH2 [UVR8 peptide]
N (stoichiometry of binding), VP peptide vs. COP1^Lys422Ala ([1]; ITC): 0.87 ± 0.2 | Fold increase of binding affinity for COP1^Lys422Ala compared with wild type COP1 ([1]; ITC, ratio of Kd values): ~ 10

Ac-EDQMVPSITY-NH2 [CRY1 peptide]
N (stoichiometry of binding), VP peptide vs. COP1^Lys422Ala ([1]; ITC): 0.98 ± 0.1 | N (stoichiometry of binding), VP peptide vs. COP1 WD40 domain (WT) ([2]; ITC): 0.99 ± 0.3

Ac-GYGIVPSFY-NH2 [CO peptide]
Kd [1]: 21 ± 10 µM | N (stoichiometry of binding), VP peptide vs. COP1^Lys422Ala ([1]; ITC): 0.89 ± 0.03 | Fold increase of binding affinity for COP1^Lys422Ala compared with wild type COP1 ([1]; ITC, ratio of Kd values): ~ 4 | N (stoichiometry of binding), VP peptide vs. COP1 WD40 domain (WT) ([2]; ITC): 1.03 ± 0.00

UVR8: recombinant full-length Arabidopsis UV-B photoreceptor UVR8 expressed in insect cells
Kd [4]: ~1000 nM and 1300 nM | Interaction with the COP1 WD40 domain in size-exclusion chromatography, UV-B-activated ([5]; 150 mM NaCl, 20 mM HEPES 7.4, 2 mM BME, protein pre-monomerized by UV-B): interact | Interaction with the COP1 WD40 domain in size-exclusion chromatography, non-activated ([5]; absence of UV-B (dimer)): no interaction

Ac-GFGVVPSFY-NH2 [COL3 peptide]
N (stoichiometry of binding), VP peptide vs. COP1^Lys422Ala ([1]; ITC): 0.90 ± 0.2 | N (stoichiometry of binding), VP peptide vs. COP1 WD40 domain (WT) ([2]; ITC): 0.75 ± 0.2
